Experimental data published in patent publication US10207985B2, “Compounds” (SYNGENTA PARTICIPATIONS AG, priority 2013, dated 2019).

- melting point: 111 to 112 °C
Structure (SMILES): Cc1ccsc1C1CC[C@H]1NC(=O)c1ccccc1C(F)(F)F (stereo partly shown) [Compound 116-4]
